Data published in patent US20220401407A1, “REGULATION OF THE SLEEP/WAKE CYCLE USING C[…]” (Demetrix, Inc., priority 2021, published 2022).
Entries after “also recorded” stand apart in the source; their conditions may differ.

Legend:
Assay type in all cases: cell-based
HCRTR2 [1] = target: T1, HCRTR2 (Homo sapiens, UniProt O43614); test: PathHunter β-Arrestin GPCR agonist assay, HCRTR2; parameters: concentration or dose not given beside the values; conditions: agonist mode; Orexin A as control
T1 sequence (O43614 1-444): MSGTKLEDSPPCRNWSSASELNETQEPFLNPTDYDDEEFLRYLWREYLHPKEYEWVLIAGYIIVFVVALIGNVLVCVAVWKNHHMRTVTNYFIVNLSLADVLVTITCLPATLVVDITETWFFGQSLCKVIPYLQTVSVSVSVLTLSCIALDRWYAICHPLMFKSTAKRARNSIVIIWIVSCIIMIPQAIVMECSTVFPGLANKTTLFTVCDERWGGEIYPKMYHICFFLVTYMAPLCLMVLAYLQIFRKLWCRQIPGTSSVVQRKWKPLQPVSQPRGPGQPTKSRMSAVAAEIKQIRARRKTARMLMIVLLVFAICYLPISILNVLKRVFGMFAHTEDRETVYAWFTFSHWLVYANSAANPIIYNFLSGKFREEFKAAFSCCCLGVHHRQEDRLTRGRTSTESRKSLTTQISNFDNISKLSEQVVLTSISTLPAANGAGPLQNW
Description: (§1) To evaluate the role specific cannabinoid compounds may play on the sleep/wake cycle, a GPCR reactivity assay was performed to determine the reactivity of 19 cannabinoid compounds to the orexin receivers HCRTR1 and HCRTR2. The evaluated cannabinoid compounds were: CBN, THCV, CBDVA, CBG, CBL, CBC, CBDV, CBDA, CBD, CBGA, (+)-CBD, CBG-C4, CBD-C1, CBD-C2, CBGV, CBGA-C4, CBGVA, CBCA, and CBLA. Orexin A was used as the control for HCRTR1 and HCRTR2.
(§2) To perform the GPCR reactivity assay, a commercial GPCR assay, PathHunter® β-Arrestin from Eurofins DiscoverX Products (Fremont, Calif.), was used. […] At activation of the GPCR receptor and recruitment of β-arrestin, complementation of the peptide fragments occurs and restores β-galactosidase activity. The amount of β-galactosidase activity is then measurable using chemiluminescent reagents.
(§3) A total of four assays were run. Agonist assays were run for each of HCRTR1 and HCRTR2 and antagonist assays were run for HCRTR1 and HCRTR2. In each of the two agonist assays, PathHunter® cell lines were removed from a freezer stock and seeded at a volume of 20 μL into white walled, 384-well microplates and incubated at 37° C. Each cell was incubated with a sample to induce a response and then diluted to generate a 5× sample in assay buffer. 5 μL of the 5× sample was then added to cells and incubated at 37° C. for 90 or 180 minutes. The final assay concentration was 1%. The assay signal was generated through addition of 12.5 μL or 15 μL (50% V/V) of a detection reagent cocktail followed by a one hour incubation time at room temperature. Microplates were read following signal generation with a PerkinElmer Envision™ (PerkinElmer Inc., Waltham, Mass.) for chemiluminescent signal detection. Reactivity was analyzed using the CBIS data analysis suite (ChemInnovation, CA) where RLU refers to the raw measured values. The percent activity was then calculated using the formula: % Activity=100%*(mean RLU of test sample−mean RLU of control)/(mean max control ligand−mean RLU of vehicle control).
(§4) For agonist activity, the percent activity is depicted while for antagonist activity, the percent inhibition is depicted.

HCRTR1 [2] = target: T2, HCRTR1 (Homo sapiens, UniProt O43613); test: PathHunter β-Arrestin GPCR agonist assay, HCRTR1; parameters: concentration or dose not given beside the values; conditions: agonist mode; Orexin A as control
T2 sequence (O43613 1-425): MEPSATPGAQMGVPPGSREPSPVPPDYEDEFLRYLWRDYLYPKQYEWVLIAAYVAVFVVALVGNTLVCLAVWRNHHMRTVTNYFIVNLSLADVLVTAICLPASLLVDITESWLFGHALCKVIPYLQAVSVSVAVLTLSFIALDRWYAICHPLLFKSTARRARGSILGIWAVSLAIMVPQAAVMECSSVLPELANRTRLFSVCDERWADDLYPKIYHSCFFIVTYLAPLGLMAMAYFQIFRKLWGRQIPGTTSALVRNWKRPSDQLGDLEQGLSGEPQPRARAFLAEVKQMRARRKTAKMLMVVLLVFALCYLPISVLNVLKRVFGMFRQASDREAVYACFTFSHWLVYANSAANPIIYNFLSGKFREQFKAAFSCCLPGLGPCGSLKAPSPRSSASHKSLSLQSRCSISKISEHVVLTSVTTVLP
Description: as §1, §2, §3, §4

HCRTR1 [3] = target: T2, HCRTR1; test: PathHunter β-Arrestin GPCR antagonist assay, HCRTR1; conditions: for HCRTR1 (Antagonist) percent inhibition: antagonist mode, agonist challenge at EC80
Description: as §1, §2
(§5) In each of the two antagonist assays, PathHunter® cell lines were removed from a freezer stock and seeded at a volume of 20 μL into white walled, 384-well microplates and incubated at 37° C. Each cell was pre-incubated with an antagonist followed by an agonist challenge at the EC80 concentration. Cells were then diluted to generate a 5× sample in assay buffer. 5 μL of the 5× sample was then added to cells and incubated at 37° C. for 30 minutes. Finally, 5 μL of 6×EC80 agonist in assay buffer were added to the cells and incubated at 37° C. for 90 minutes or 180 minutes. The assay signal was generated through addition of 12.5 μL or 15 μL (50% V/V) of a detection reagent cocktail followed by a one hour incubation time at room temperature. Microplates were read following signal generation with a PerkinElmer Envision™ (PerkinElmer Inc., Waltham, Mass.) for chemiluminescent signal detection. Reactivity was analyzed using the CBIS data analysis suite (ChemInnovation, CA) where RLU refers to the raw measured values. The percent inhibition was calculated using the formula: % Inhibition=100%*(1−mean RLU of test sample−mean RLU of control)/(mean RLU of EC80 control−mean RLU of vehicle control).
as §4

dopamine receptor DRD5 = dopamine receptor DRD5 (Homo sapiens, UniProt P21918); test: PathHunter β-Arrestin GPCR agonist assay, DRD5; parameters: DRD5 (Agonist) percent activity: concentration or dose not given beside the values; conditions: agonist mode; dopamine as control
Excerpt: as §2, §3
Table 2 depicts the results of evaluating the cannabinoid compounds to act as an agonist for the dopamine receptor DRD5. The same experimental procedure as used for HCRTR1 and HCRTR2 agonist testing (Table 1) was followed with the substitution of dopamine as the control for the DRD5 receptor.

HCRTR2 [4] = target: T1, HCRTR2; test: PathHunter β-Arrestin GPCR antagonist assay, HCRTR2; conditions: for HCRTR2 (Antagonist) percent inhibition: antagonist mode, agonist challenge at EC80
Description: as §1, §2, §5, §4

dopamine receptor DRD5, sequence (P21918 whole entry): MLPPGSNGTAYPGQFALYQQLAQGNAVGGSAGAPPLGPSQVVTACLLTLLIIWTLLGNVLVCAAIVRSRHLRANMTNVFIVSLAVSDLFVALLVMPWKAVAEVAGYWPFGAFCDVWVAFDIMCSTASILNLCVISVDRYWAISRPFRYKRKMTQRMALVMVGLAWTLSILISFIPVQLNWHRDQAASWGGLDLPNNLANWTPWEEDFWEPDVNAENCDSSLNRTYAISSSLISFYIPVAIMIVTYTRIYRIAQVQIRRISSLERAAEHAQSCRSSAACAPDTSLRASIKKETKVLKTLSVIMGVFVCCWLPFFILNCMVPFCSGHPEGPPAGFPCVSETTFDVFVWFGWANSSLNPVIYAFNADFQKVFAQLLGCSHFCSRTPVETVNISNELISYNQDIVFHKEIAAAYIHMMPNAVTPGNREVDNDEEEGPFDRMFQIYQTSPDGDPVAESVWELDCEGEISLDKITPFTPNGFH

Structure (SMILES)	HCRTR2 (Agonist) percent activity (HCRTR2 [1]) [%]	HCRTR1 (Agonist) percent activity (HCRTR1 [2]) [%]	antagonist effect on HCRTR1 (in words) (HCRTR1 [3])	HCRTR1 (Antagonist) percent inhibition (HCRTR1 [3]) [%]	DRD5 (Agonist) percent activity (dopamine receptor DRD5) [%]	antagonist effect on HCRTR2 (in words) (HCRTR2 [4])	HCRTR2 (Antagonist) percent inhibition (HCRTR2 [4]) [%]
C=C(C)[C@@H]1CCC(C)=C[C@H]1c1c(O)cc(C)cc1O [CBD-C1, cannabidiorcol]	1	3	do not demonstrate meaningful activity	12	0	do not demonstrate meaningful activity	9
CCCCc1cc(O)c(C/C=C(\C)CCC=C(C)C)c(O)c1C(=O)O [CBGA-C4, cannabigerolic acid butyl]	1	3	do not demonstrate meaningful activity	2	0	do not demonstrate meaningful activity	10
C=C(C)[C@@H]1CCC(C)=C[C@H]1c1c(O)cc(CCCCC)c(C(=O)O)c1O [CBDA, cannabidiolic acid]	0	1	do not demonstrate meaningful activity	2	5	do not demonstrate meaningful activity	10
CCCCCc1cc(O)c2c(c1)OC(C)(C)c1ccc(C)cc1-2 [CBN, cannabinol]	7	1	antagonist effect; also recorded: acted as an antagonist	95	3	antagonist effect; also recorded: acted as an antagonist	94
CCCCCc1cc2c(c(O)c1C(=O)O)C1C3C(CCC3(C)O2)C1(C)C (stereo not shown) [CBLA, cannabicyclolic acid]	0	2	do not demonstrate meaningful activity	7	0	do not demonstrate meaningful activity	15
C=C(C)[C@@H]1CCC(C)=C[C@H]1c1c(O)cc(CCCCC)cc1O [CBD, cannabidol]	5	1	antagonist effect; also recorded: acted as an antagonist	96	27	antagonist effect; also recorded: acted as an antagonist	85
CCCCCc1cc(O)c(C/C=C(\C)CCC=C(C)C)c(O)c1 [CBG, cannabigerol]	4	3	antagonist effect; also recorded: acted as an antagonist	98	9	antagonist effect; also recorded: acted as an antagonist	68
